Read-outs that look alike come from different tables or passages of the source.
What was measured:
[1] = system: MIA (pancreatic) cancer cells; assay: MTT growth inhibition assay, MIA; format: cell-based; settings: 72 h, ± standard error, read-out: Growth Inhibition Concentration, GI50
Description: (§1) The Schiff bases and their organotin(IV) compounds were screened for in vitro cytotoxicity against a panel of 12 cancer cell lines: EJ-28 (muscle invasive bladder), RT-112 (minimum-invasive bladder), HT29 (colon), U87 and SJ-G2 (glioblastoma), MCF-7 (breast), A2780 (ovarian), H460 (lung), A431 (skin), DU145 (prostate), BE2-C (neuroblastoma), MIA (pancreatic) and one normal breast cell line (MCF-10A) using the MTT metabolic assay (Figure 6). After 72 h of incubation, a dose-dependent […] effect towards the cancer cell lines was measured at very low micromolar (µM) concentrations of the compounds. The growth inhibition concentration of the Schiff bases and their organotin(IV) compounds required to inhibit 50% cell proliferation relative to the cells that were treated with DMSO (control) are given in Table 2. The stability of these compounds was assessed in DMSO as well as in a mixture of DMSO-H2O. The absorbance obtained from UV-vis spectroscopy analysis was monitored for 72 h, and an unchanged pattern in the spectra was indicative that the compounds were stable in both the solvent systems tested.
(§2) For HT29 (colon), U87 and SJ-G2 (glioblastoma), MCF-7 (breast), A2780 (ovarian), H460 (lung), A431 (skin), Du145 (prostate), BE2-C (neuroblastoma), MIA (pancreas) cell lines and one normal breast cell line, MCF-10A (normal breast), the MTT assays were performed using the following method:
(§3) Stock solutions were prepared as follows and stored at −20 °C: Trial compounds were stored as 10 mM solutions in DMSO. All cell lines were cultured in a humidified atmosphere 5% CO2 at 37 °C. The cancer cell lines were maintained in Dulbecco’s modified Eagle’s medium (DMEM) (Trace Biosciences) supplemented with 10% foetal bovine serum, 10 mM sodium bicarbonate, penicillin (100 IU/mL), streptomycin (100 μg/mL) and glutamine (4 mM). The normal cell line, MCF-10A was cultured in DMEM:F12 (1:1) cell culture media, 5% heat inactivated horse serum, supplemented with penicillin (50 IU/mL), streptomycin (50 μg/mL), 20mM Hepes, L-glutamine (2 mM), epidermal growth factor (20 ng/mL), hydrocortisone (500 ng/mL), cholera toxin (100 ng/mL) and insulin (10 μg/mL).
(§4) Cells in logarithmic growth were transferred to 96-well plates. Cytotoxicity was determined by plating cells in duplicate in 100 μL medium at a density of 2500–4000 cells/well. On day 0 (24 h after plating), when the cells were in logarithmic growth, 100 μL medium, with or without the test agent, was added to each well. After 72 h drug exposure, growth inhibitory effects were evaluated using the MTT (3-[4,5-dimethylthiazol-2-yl]-2,5-diphenyltetrazolium bromide) assay and absorbance read at 540 nm. Percentage growth inhibition was determined at a fixed drug concentration of 25 μM. A value of 100% was indicative of complete cell growth inhibition. Those analogues showing appreciable percentage growth inhibition underwent further dose-response analysis allowing for the calculation of a GI50 value. This value is the drug concentration at which cell growth is 50% inhibited based on the difference between the optical density values on day 0 and those at the end of drug exposure.

[2] = system: BE2-C (neuroblastoma) cancer cells; assay: MTT growth inhibition assay, BE2-C; format: cell-based; settings: 72 h, ± standard error, read-out: Growth Inhibition Concentration, GI50
Description: as §1, §2, §3, §4

[3] = system: RT-112 (minimum-invasive bladder) cancer cells; assay: MTT cytotoxicity assay, RT-112; format: cell-based, human; settings: RT-112 cells, 72 h, ± standard error, read-out: Growth Inhibition Concentration, GI50
Description: as §1
(§5) The inhibitory effect of the synthesised compounds on the growth of bladder (EJ-28 and RT-112) cancer cells was evaluated by MTT assay. […] RT-112 and EJ-28, human bladder cancer cell lines used in this study (ATCC, Manassas, VA, USA) were cultured in RPMI-1640 (High glucose) medium supplemented with 10% fetal bovine serum containing 1% penicillin. The cells were cultured at 37 °C in a humidified atmosphere of 5% CO2 in air. Cells were seeded in 96-well plates at 6000 cells per well for 24 h, then they were treated with different concentrations of compounds for 72 h. The medium was subsequently removed and the wells were washed with 200 µL of phosphate buffer saline. Aliquots of 20 µL of 3-(4,5-dimethylthiazol-2-yl)-2,5-diphenyltetrazolium bromide (MTT) was added to each well and incubated for 4 h at 37 °C. Aliquots of 200 µL of media was then removed from each well and 200 µL of DMSO was added. Optical density (OD) was measured using an ELISA plate reader at 570 nm. Control wells (100% viability), containing media and DMSO, were included in all the experiments. All data points represented an average of triplicate assays. Cytotoxicity was expressed as CD50, i.e., the concentration that reduced the absorbance of treated cells by 50% with reference to the control (untreated cells).

[4] = system: U87 (glioblastoma) cancer cells; assay: MTT growth inhibition assay, U87; format: cell-based; settings: 72 h, ± standard error, read-out: Growth Inhibition Concentration, GI50
Description: as §1, §2, §3, §4

[5] = system: EJ-28 (muscle invasive bladder) cancer cells; assay: MTT cytotoxicity assay, EJ-28; format: cell-based, human; settings: EJ-28 cells, 72 h, ± standard error, read-out: Growth Inhibition Concentration, GI50
Description: as §1, §5

H460 (lung) cancer cells = assay: MTT growth inhibition assay, H460; format: cell-based; settings: ± standard error, read-out: Growth Inhibition Concentration, GI50
Description: as §1, §2, §3, §4

[6] = system: MCF-10A (normal breast) cell line; assay: MTT growth inhibition assay, MCF10A; format: cell-based; settings: MCF10A normal breast cells, 72 h, ± standard error, read-out: Growth Inhibition Concentration, GI50
Description: as §1, §2, §3, §4

[7] = system: SJ-G2 (glioblastoma) cancer cells; assay: MTT growth inhibition assay, SJ-G2; format: cell-based; settings: MTT, 72 h, ± standard error, read-out: Growth Inhibition Concentration, GI50
Description: as §1, §2, §3, §4

[8] = system: Du145 (prostate) cancer cells; assay: MTT growth inhibition assay, Du145; format: cell-based; settings: ± standard error, read-out: Growth Inhibition Concentration, GI50
Description: as §1, §2, §3, §4

[9] = system: MCF-7 (breast) cancer cells; assay: MTT growth inhibition assay, MCF-7; format: cell-based; settings: 72 h, ± standard error, read-out: Growth Inhibition Concentration, GI50
Description: as §1, §2, §3, §4

[10] = system: HT29 (colon) cancer cells; assay: MTT growth inhibition assay, HT29; format: cell-based; settings: ± standard error, read-out: Growth Inhibition Concentration, GI50
Description: as §1, §2, §3, §4

A431 (skin) cancer cells = assay: MTT growth inhibition assay, A431; format: cell-based; settings: ± standard error, read-out: Growth Inhibition Concentration, GI50
Description: as §1, §2, §3, §4

calf thymus DNA (CT-DNA) = assay: CT-DNA binding by UV-vis absorption titration; settings: for Bathochromism Shift (nm) / Hypochromism, (%): CT-DNA, UV-vis absorption titration; for Gibbs Free Energy: interaction with CT-DNA
Description: Both theoretical and experimental DNA binding of the synthesised organotin(IV) compounds with DNA were investigated. The interaction of organotin(IV) compounds with CT-DNA was elucidated via UV-visible absorption spectroscopy. […] The absorption spectra of diphenyltin(IV) compounds at a constant concentration (50 μM) in the absence and the presence of different concentrations of CT-DNA are shown in Figure 8. Upon increasing concentrations of CT-DNA, hypochromism and bathochromism occurred at around 350–377 nm indicating strong π–π stacking interactions between the aromatic chromophore of the organotin(IV) compounds and the nitrogeneous pair of the DNA strand [11, 70]. The same hypochromism and bathochromism shifts were also observed in other transitions. In order to compare the binding strength of the organotin(IV) compounds to CT-DNA, the intrinsic binding constants (Kb) were quantitatively determined and are presented in Table 3.
DNA binding experiments were carried out at 25°C. DNA concentration per nucleotide was determined using the molar absorption coefficient (6600 M^−1 cm^−1) at 260 nm. […] Absorption titration experiments were performed maintaining the concentration of the organotin(IV) compounds solutions at 50 µM and gradually increasing the concentration of CT-DNA. The organotin(IV) compounds were dissolved in DMSO and diluted with Tris-HCI buffer at room temperature (25 °C). The solutions were scanned over 230–600 nm. Absorbance values were recorded 10 min after the addition of DNA solution. The binding constant, Kb was determined using the equation: [DNA]/(εa−εf)=[DNA]/(εb−εf)+1/Kb(εb−εf) where [DNA] is the concentration of DNA in base pairs, εa corresponds to the apparent molar extinction coefficient Aabs/[M], εf corresponds to the extinction coefficient for the free organotin [M] and εb corresponds to the extinction coefficient for the fully bound organotin compound.

[11] = system: A2780 (ovarian) cancer cells; assay: MTT growth inhibition assay, A2780; format: cell-based; settings: 72 h, ± standard error, read-out: Growth Inhibition Concentration, GI50
Description: as §1, §2, §3, §4

| Compound | GI50 [1] [µM] | GI50 [2] [µM] | GI50 [3] [µM] | GI50 [4] [µM] | GI50 [5] [µM] | GI50 (H460 (lung) cancer cells; 72 h) [µM] | GI50 [6] [µM] | GI50 [7] [µM] | GI50 ([8]; 72 h) [µM] | GI50 ([9]; MCF-7 cells) [µM] | GI50 ([10]; 72 h) [µM] | GI50 (A431 (skin) cancer cells; 72 h) [µM] | Bathochromism Shift (nm) (calf thymus DNA (CT-DNA)) | Hypochromism, (%) (calf thymus DNA (CT-DNA)) | Gibbs Free Energy (calf thymus DNA (CT-DNA)) [kcal/mol] | GI50 [11] [µM] | also measured |
| --- | --- | --- | --- | --- | --- | --- | --- | --- | --- | --- | --- | --- | --- | --- | --- | --- | --- |
| COc1cccc2c1[O][Sn]([CH3])([CH3])[S]C(SCc1ccccc1C)=NN=C2 [Me2Sn(S2MoVa), Dimethyltin(IV) [S-2-Methybenzyl-β-N-(2-hydroxy-3-methoxybenzylmethylene) dithiocarbazate]] | 3.9 ± 0.07 | 2.9 ± 0.03 | 2.4 ± 0.77 | 3.6 ± 0.23 | 2.5 ± 0.78 | 3.3 ± 0.13 | 3 ± 0.09 | 2.5 ± 0.3 | 3.9 ± 0.03 | 3.1 ± 0.12 | 2.7 ± 0.1 | 3 ± 0.03 | 10 | 37.97 | -7.55 | 3.1 ± 0.06 | – |
| COc1cccc(/C=N/NC(=S)SCc2ccc(C)cc2)c1O [S4MoVaH, S-4-Methybenzyl-β-N-(2-hydroxy-3-methoxybenzylmethylene)dithiocarbazate] | – | – | – | – | – | – | – | 3.3 ± 0.87 | – | – | – | – | – | – | – | – | GI50 ([1]; Pancreatic cancer cell): 11 ± 2.3 µM; GI50 ([2]; Homo sapiens, BE(2)-C): 3.6 ± 0.27 µM; GI50 ([3]; Homo sapiens): 3.2 ± 0.51 µM; melting point: 177 to 178 °C; GI50 ([4]; Homo sapiens, U-87 MG): 3.9 µM; GI50 ([5]; Homo sapiens): 3.6 ± 0.44 µM; GI50 (H460 (lung) cancer cells; Homo sapiens, NCI-H460, 72 h): 5.5 ± 0.73 µM; GI50 ([6]; Homo sapiens, MCF-10A): 3.5 ± 0.23 µM; GI50 ([8]; Homo sapiens, DU-145, 72 h): 5.4 ± 0.23 µM; GI50 ([9]; Homo sapiens, MCF7, MCF-7 cells): 3.5 µM; GI50 ([10]; Homo sapiens, HT-29, 72 h): 8 ± 3.5 µM; GI50 (A431 (skin) cancer cells; Homo sapiens, A-431, 72 h): 4.2 ± 0.74 µM; GI50 ([11]; Homo sapiens): 3.1 ± 0.4 µM |
| COc1cccc2c1[O][Sn]([CH3])([CH3])[S]C(SCc1ccc(C)cc1)=NN=C2 [Me2Sn(S4MoVa), Dimethyltin(IV) [S-4-Methybenzyl-β-N-(2-hydroxy-3-methoxybenzylmethylene) dithiocarbazate]] | 8.9 ± 1.3 | 3.3 ± 0.23 | > 5 | 3.3 ± 0.18 | > 5 | 4.7 ± 0.46 | 3.3 ± 0.15 | 3.1 ± 0.55 | 4.2 ± 0.1 | 3.3 ± 0.32 | 6.9 ± 3.5 | 4.2 ± 0.34 | 7 | 43.72 | -7.67 | 3.1 ± 0.63 | – |

From paper PMC6413231, “o-Vanillin Derived Schiff Bases and Their Organotin(IV) Compounds: Synthesis, Structural Characterisation, In-Silico Studies and Cytotoxicity” (International Journal of Molecular Sciences, 2019)
